Experimental findings from patent publication US20130096107A1, “USE OF AMINODIHYDROTHIAZINES FOR THE TREATMENT OR PREVENTION OF DIABETES” (Hoffmann-La Roche Inc., priority 2009, published 2013) are described below.

For the experiment, the target named is T1, BACE2 (Homo sapiens, UniProt Q9Y5Z0).
T1 construct: BACE2 enzyme ectodomain (derived from plasmid “pET17b-T7-hu proBACE2”); T7 tag; made in house; a pET17b plasmid implies E. coli (own knowledge)
T1 sequence (Q9Y5Z0 63-473 limits assumed): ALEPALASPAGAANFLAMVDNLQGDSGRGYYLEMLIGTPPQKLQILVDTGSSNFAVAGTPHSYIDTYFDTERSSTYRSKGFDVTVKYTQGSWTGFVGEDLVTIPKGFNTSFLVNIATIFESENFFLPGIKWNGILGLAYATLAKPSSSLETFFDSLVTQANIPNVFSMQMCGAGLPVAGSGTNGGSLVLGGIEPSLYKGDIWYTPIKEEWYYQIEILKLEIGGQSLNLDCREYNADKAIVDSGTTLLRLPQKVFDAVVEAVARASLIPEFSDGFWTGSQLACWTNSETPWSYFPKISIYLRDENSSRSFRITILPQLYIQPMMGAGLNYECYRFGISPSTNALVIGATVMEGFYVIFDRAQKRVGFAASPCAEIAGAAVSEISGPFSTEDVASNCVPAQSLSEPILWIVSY
The experiment is described as follows: Immunofluorescence Resonance Energy Transfer (FRET) assay for BACE2 inhibition. It is filed as biochemical. Conditions: pH 4.5; 5 μM TMEM27-based FRET peptide substrate. Here is the method:
BACE2 enzyme ectodomain (derived from plasmid “pET17b-T7-hu proBACE2”) was prepared as described in Ostermann et al., “Crystal Structure of Human BACE2 in Complex with a Hydroxyethylamine Transition-state Inhibitor”, Journal of Molecular Biology 2006, 355, 249-261. The pro-enzyme was stored at 4° C. at a concentration of 70 μg/ml.
The FRET assay was performed essentially as described in Grüninger-Leitch et al., Journal of Biological Chemistry (2002) 277(7) 4687-93 (“Substrate and inhibitor profile of BACE (beta-secretase) and comparison with other mammalian aspartic proteases”). In summary, a peptide is designed that is cleaved by the protease. The peptide is labelled with dabcyl at the N terminus and Lucifer Yellow at the C-terminus, such that for an intact peptide the Lucifer Yellow fluorescence is quenched by the dabcyl. When the peptide is cut by BACE2, the quenching is removed and a fluorescent signal is generated.
The assay was performed as described in Grueninger et al. 2002 at pH 4.5 using a substrate concentration of 5 μM. A FRET peptide based on the TMEM27 sequence was devised. dabcyl—[…]—LucY.
The assay readout is the initial rate of change of fluorescence intensity giving a relative measure of BACE2 activity. Small values correspond to high inhibition and larger values to low inhibition. […] IC50 values were determined using these assay values generated for a range of inhibitor concentrations and the curve fitting software XLfit (IDBS) using the Sigmoidal Dose-Response Model.

pIC50: −log10 of the molar value.

For `CC[C@@]1(c2cc(NC(=O)c3ccc(Cl)cn3)ccc2F)CCSC(N)=N1` [Example 2, 5-Chloro-pyridine-2-carboxylic acid [3-((S)-2-amino-4-ethyl-5,6-dihydro-4H-[1,3]thiazin-4-yl)-4-fluoro-phenyl]-amide], the pIC50 (in general, the IC50 on a negative log10 scale, so that one unit is a factor of ten) is 8.10.

Regarding `CC[C@@]1(c2cc(NC(=O)c3ccccn3)ccc2F)CCSC(N)=N1` [Example 3, Pyridine-2-carboxylic acid [3-((S)-2-amino-4-ethyl-5,6-dihydro-4H-[1,3]thiazin-4-yl)-4-fluoro-phenyl]-amide], the negative-log IC50 (pIC50) is 5.99.

Compound `CC[C@@]1(c2cc(NC(=O)c3ccc(Cl)cc3)ccc2F)CCSC(N)=N1` [Example 4, N-[3-((S)-2-Amino-4-ethyl-5,6-dihydro-4H-[1,3]thiazin-4-yl)-4-fluoro-phenyl]-4-chloro-benzamide] gave a pIC50 of 5.57. In the case of `CC[C@@]1(c2cc(NC(=O)c3cnc(Cl)cn3)ccc2F)CCSC(N)=N1` [Example 5, 5-Chloro-pyrazine-2-carboxylic acid [3-((S)-2-amino-4-ethyl-5,6-dihydro-4H-[1,3]thiazin-4-yl)-4-fluoro-phenyl]-amide] it was 6.00. The same measure for `CC[C@@]1(c2cc(NC(=O)c3ncc(Cl)cn3)ccc2F)CCSC(N)=N1` [Example 6, 5-Chloro-pyrimidine-2-carboxylic acid [3-((S)-2-amino-4-ethyl-5,6-dihydro-4H-[1,3]thiazin-4-yl)-4-fluoro-phenyl]-amide]: 6.36.

In turn, `CC[C@@]1(c2cc(NC(=O)c3ncccc3C(F)(F)F)ccc2F)CCSC(N)=N1` [Example 7, 3-Trifluoromethyl-pyridine-2-carboxylic acid [3-((S)-2-amino-4-ethyl-5,6-dihydro-4H-[1,3]thiazin-4-yl)-4-fluoro-phenyl]-amide] had a pIC50 of 5.26. Against the preceding compound, the pIC50 is 1.10 log units lower. In the case of `CC[C@@]1(c2cc(NC(=O)c3ncccc3-c3ccccc3)ccc2F)CCSC(N)=N1` [Example 8, 3-Phenyl-pyridine-2-carboxylic acid [3-((S)-2-amino-4-ethyl-5,6-dihydro-4H-[1,3]thiazin-4-yl)-4-fluoro-phenyl]-amide], the pIC50 was 5.31. This pIC50 and that of the compound before are within 0.2 log units of each other. The same measure for `CC[C@@]1(c2cc(NC(=O)c3cc(Cl)ccn3)ccc2F)CCSC(N)=N1` [Example 9, 4-Chloro-pyridine-2-carboxylic acid [3-((S)-2-amino-4-ethyl-5,6-dihydro-4H-[1,3]thiazin-4-yl)-4-fluoro-phenyl]-amide]: 4.39; for `CC[C@@]1(c2cc(NC(=O)c3cccc(C)n3)ccc2F)CCSC(N)=N1` [Example 10, 6-Methyl-pyridine-2-carboxylic acid [3-((S)-2-amino-4-ethyl-5,6-dihydro-4H-[1,3]thiazin-4-yl)-4-fluoro-phenyl]-amide]: 4.29.

In turn, `CC[C@@]1(c2cc(NC(=O)c3nc(Cl)ccc3Cl)ccc2F)CCSC(N)=N1` [Example 11, 3,6-Dichloro-pyridine-2-carboxylic acid [3-((S)-2-amino-4-ethyl-5,6-dihydro-4H-[1,3]thiazin-4-yl)-4-fluoro-phenyl]-amide] showed a negative-log IC50 (pIC50) of 4.64. On to `CC[C@@]1(c2cc(NC(=O)c3nc(Cl)ccc3C(F)(F)F)ccc2F)CCSC(N)=N1` [Example 12, 6-Chloro-3-trifluoromethyl-pyridine-2-carboxylic acid [3-((S)-2-amino-4-ethyl-5,6-dihydro-4H-[1,3]thiazin-4-yl)-4-fluoro-phenyl]-amide], for which the pIC50 is 4.48. The same measure for `CC[C@@]1(c2cc(NC(=O)c3cc4ccccc4cn3)ccc2F)CCSC(N)=N1` [Example 13, Isoquinoline-3-carboxylic acid [3-((S)-2-amino-4-ethyl-5,6-dihydro-4H-[1,3]thiazin-4-yl)-4-fluoro-phenyl]-amide]: 5.04; for `CC[C@@]1(c2cc(NC(=O)c3nccc4ccsc34)ccc2F)CCSC(N)=N1` [Example 14, Thieno[2,3-c]pyridine-7-carboxylic acid [3-((S)-2-amino-4-ethyl-5,6-dihydro-4H-[1,3]thiazin-4-yl)-4-fluoro-phenyl]-amide]: 5.51; for `CC[C@@]1(c2cc(NC(=O)c3cc4ccccc4s3)ccc2F)CCSC(N)=N1` [Example 15, Benzo[b]thiophene-2-carboxylic acid [3-((S)-2-amino-4-ethyl-5,6-dihydro-4H-[1,3]thiazin-4-yl)-4-fluoro-phenyl]-amide]: 6.04.

Take `CC[C@@]1(c2cc(NC(=O)c3ccc(C)s3)ccc2F)CCSC(N)=N1` [Example 16, 5-Methyl-thiophene-2-carboxylic acid [3-((S)-2-amino-4-ethyl-5,6-dihydro-4H-[1,3]thiazin-4-yl)-4-fluoro-phenyl]-amide]: the pIC50 is 6.18. In the case of `CC[C@@]1(c2cc(NC(=O)c3ccn(C)n3)ccc2F)CCSC(N)=N1` [Example 17, 1-Methyl-1H-pyrazole-3-carboxylic acid [3-((S)-2-amino-4-ethyl-5,6-dihydro-4H-[1,3]thiazin-4-yl)-4-fluoro-phenyl]-amide] it was 5.67; in that of `CC[C@@]1(c2cc(NC(=O)c3coc(C)n3)ccc2F)CCSC(N)=N1` [Example 18, 2-Methyl-oxazole-4-carboxylic acid [3-((S)-2-amino-4-ethyl-5,6-dihydro-4H-[1,3]thiazin-4-yl)-4-fluoro-phenyl]-amide], 6.32; in that of `CC[C@@]1(c2cc(NC(=O)c3csc(C)n3)ccc2F)CCSC(N)=N1` [Example 19, 2-Methyl-thiazole-4-carboxylic acid [3-((S)-2-amino-4-ethyl-5,6-dihydro-4H-[1,3]thiazin-4-yl)-4-fluoro-phenyl]-amide], 4.47.
